Assay [1] deals with Cbl-b (Homo sapiens (Human), UniProt Q13191). The experiment in a line: Cbl-b probe displacement HTRF binding assay. Particulars: 0.4 nM biotinylated Cbl-b, 150 nM BODIPY probe. The method, then:
The affinity with which compounds of the present disclosure bind to Cbl-b was assessed using probe displacement homologous time resolved fluorescence (HTRF) assays. The assays used a BODIPY™ conjugated probe (Example 54 from WO 2020264398) and biotinylated Cbl-b. The assays were performed in assay buffer consisting of 20 mM Hepes, 150 mM NaCl, 0.01% Triton X-100, 0.5 mM TCEP, 0.01% BSA. On the day of the assay, a 20 point, 1:2 master serial dilution of each compound was prepared in DMSO to span a final concentration range of 10 μM to 0 nM. Two hundred nanoliters of diluted compound was added to each well of a 384-well plate. Fifteen microliters of biotinylated-Cbl-b resuspended in assay buffer were added to each well and the plate incubated for 60 minutes at room temperature prior to addition of 5 μL of BODIPY™ probe in assay buffer. Final assay conditions included 0.4 nM of Cbl-b and 150 nM of BODIPY™ probe. After a further 15 minutes of incubation at room temperature, 5 μl of Streptavidin-Terbium cryptate reagent at 5-fold final concentration was added to each well of the 384-well plate. Binding of a probe to Cbl-b results in an increase of HTRF signal. HTRF signal was measured by Envision plate reader, while competition of a compound of the present disclosure with probe results in a decrease of signal. Percentage maximum activity in each test well was calculated based on DMSO (maximum activity, 0% displacement) and no protein control wells (baseline activity, 100% displacement). Binding affinity was determined from a dose response curve fitted using a standard four parameter fit equation. See Table 3 for data for compounds (Cbl-b Binding (IC50)).
(In general: In TR-FRET formats the signal depends on donor and acceptor labels being close together.)

For assay [2], the system named is Jurkat cells. The experiment in a line: IL-2 secretion assay in CD3/CD28-activated Jurkat cells (AlphaLISA). It counts as cell-based, human. The following applies: Homo sapiens, CD3/CD28 activation, 24 h. The protocol: Certain compounds were also evaluated in an IL-2 secretion assay. On the day of the assay, a 16 point, 1:2 master serial dilution of each compound was prepared in Opti-MEM to span a final concentration range of […]. Assays were set up in CORNING® tissue culture-treated 384-well microplates containing 60 nL of each dilution. Jurkat cells grown in RPMI-1640 supplemented with 10% FBS, 1% Glutamax, and 1% Pen/Strep were collected, resuspended in Opti-MEM. 50,000 cells/well and added to the compound plates. After a short spin (1200 rpm for 1 min), the plates were incubated at 37° C. for 1 hour. The cells were activated by adding 15 μL of IMMUNOCULT™ Human CD3/CD28 T Cell Activator (STEMCELL Technologies) diluted in Opti-MEM. After 24 h of incubation at 37° C., aliquots of culture supernatants were transferred to OptiPlate-384 (PerkinElmer) microplates. The level of JIL-2 secretion in the supernatants was then determined using the IL-2 (human) AiphaLISA Detection Kit (PerkinElmer) according to the manufacturer's recommendations. The AiphaLISA signal was measured using an EnVision plate reader (PerkinElmer). EC50 values were determined by fitting the data to a standard 4-parameter logistic equation. See Table 3 for data for select compounds (IL-2 Secretion (EC50)).
For orientation: In Alpha technology, singlet oxygen from a donor bead excites a nearby acceptor bead.

Sequence of Cbl-b (Q13191 whole entry, species assumed): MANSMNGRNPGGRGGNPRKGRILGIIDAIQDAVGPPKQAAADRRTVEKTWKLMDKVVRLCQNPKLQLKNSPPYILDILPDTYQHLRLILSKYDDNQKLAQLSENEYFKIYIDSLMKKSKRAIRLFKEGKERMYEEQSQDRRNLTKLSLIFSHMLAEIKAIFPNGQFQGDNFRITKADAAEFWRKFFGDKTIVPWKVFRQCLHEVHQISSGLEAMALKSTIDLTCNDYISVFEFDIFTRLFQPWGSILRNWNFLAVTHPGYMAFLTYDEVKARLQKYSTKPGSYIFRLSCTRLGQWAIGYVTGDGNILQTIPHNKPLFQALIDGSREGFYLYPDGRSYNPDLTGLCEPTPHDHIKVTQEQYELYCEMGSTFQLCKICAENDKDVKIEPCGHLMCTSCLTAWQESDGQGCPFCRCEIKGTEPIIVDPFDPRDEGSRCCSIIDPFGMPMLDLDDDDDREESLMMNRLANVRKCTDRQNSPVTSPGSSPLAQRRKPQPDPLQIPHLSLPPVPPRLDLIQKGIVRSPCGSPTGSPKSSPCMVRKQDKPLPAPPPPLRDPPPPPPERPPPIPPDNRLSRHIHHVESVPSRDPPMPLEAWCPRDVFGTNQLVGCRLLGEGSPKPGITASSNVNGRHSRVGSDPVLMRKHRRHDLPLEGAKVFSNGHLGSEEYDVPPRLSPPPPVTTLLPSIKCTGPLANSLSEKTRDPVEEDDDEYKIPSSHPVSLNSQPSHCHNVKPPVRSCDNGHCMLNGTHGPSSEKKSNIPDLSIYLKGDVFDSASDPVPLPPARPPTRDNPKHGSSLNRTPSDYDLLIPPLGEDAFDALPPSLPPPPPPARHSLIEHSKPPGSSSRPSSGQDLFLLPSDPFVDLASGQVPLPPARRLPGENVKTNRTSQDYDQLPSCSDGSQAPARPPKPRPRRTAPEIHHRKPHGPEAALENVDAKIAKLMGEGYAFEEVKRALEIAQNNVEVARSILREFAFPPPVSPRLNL

As for `C[C@H]1CCCN(Cc2cc3c(C4CC4)cn(-c4nc(-c5ccc(F)cc5C(=O)N5CC(F)C5)cc(C5CC5)n4)c(=O)c3[nH]2)C1` [Example 31, 4-cyclopropyl-6-[4-cyclopropyl-6-[4-fluoro-2-(3-fluoroazetidine-1-carbonyl)phenyl]pyrimidin-2-yl]-2-[[(3S)-3-methylpiperidin-1-yl]methyl]—1H-pyrrolo[2,3-c]pyridin-7-one], in assay [1], the half-maximal inhibitory concentration (IC50) – broadly, the concentration that inhibits the measured activity by half – is 1000 to 5000 nM. For the same compound, in assay [2], the EC50 (commonly the midpoint of the concentration-response curve) is above 5000 nM.
The corresponding values for `O=C(c1cc(F)ccc1-c1cc(C2CC2)nc(-n2cnc3cc(C4CCNC4)[nH]c3c2=O)c1)N1CC(F)C1` (stereo not shown) [Example 32, 3-[6-cyclopropyl-4-[4-fluoro-2-(3-fluoroazetidine-1-carbonyl)phenyl]pyridin-2-yl]-6-pyrrolidin-3-yl-5H-pyrrolo[3,2-d]pyrimidin-4-one] are below 100 nM and 1000 to 5000 nM.
For `O=C(c1cc(F)ccc1-c1cc(C2CC2)nc(-n2cnc3cc(C4CC4)[nH]c3c2=O)c1)N1CC(F)C1` [Example 33, 6-cyclopropyl-3-[6-cyclopropyl-4-[4-fluoro-2-(3-fluoroazetidine-1-carbonyl)phenyl]pyridin-2-yl]-5H-pyrrolo[3,2-d]pyrimidin-4-one], in that order: 100 to 1000 nM and 100 to 1000 nM.
As for `COC[C@H](C)NCc1cc2ncn(-c3cc(-c4ccc(F)cc4C(=O)N4CC(F)(F)C4)cc(C4CC4)n3)c(=O)c2[nH]1` [Example 34, 3-[6-cyclopropyl-4-[2-(3,3-difluoroazetidine-1-carbonyl)-4-fluorophenyl]pyridin-2-yl]-6-[[[(2S)-1-methoxypropan-2-yl]amino]methyl]-5H-pyrrolo[3,2-d]pyrimidin-4-one], the IC50 in assay [1] is below 100 nM. In addition, the EC50 in assay [2] is below 100 nM.
In assay [1], `COCCNCc1cc2ncn(-c3cc(-c4ccc(F)cc4C(=O)N4CC(F)C4)cc(C4CC4)n3)c(=O)c2[nH]1` [Example 35, 3-[6-cyclopropyl-4-[4-fluoro-2-(3-fluoroazetidine-1-carbonyl)phenyl]pyridin-2-yl]-6-[(2-methoxyethylamino)methyl]-5H-pyrrolo[3,2-d]pyrimidin-4-one] gave an IC50 below 100 nM. The compound further registered an EC50 in assay [2] below 100 nM.
As to `CC1(NCc2cc3ncn(-c4cc(-c5ccc(F)cc5C(=O)N5CC(F)C5)cc(C5CC5)n4)c(=O)c3[nH]2)CCC1` [Example 36, 3-[6-cyclopropyl-4-[4-fluoro-2-(3-fluoroazetidine-1-carbonyl)phenyl]pyridin-2-yl]-6-[[(1-methylcyclobutyl)amino]methyl]-5H-pyrrolo[3,2-d]pyrimidin-4-one], the half-maximal inhibitory concentration (IC50) in assay [1] is below 100 nM. In assay [2], this compound returned an EC50 below 100 nM.
Regarding `O=C(c1cc(F)ccc1-c1cc(C2CC2)nc(-n2cnc3cc(CN4CC5CCC4C5)[nH]c3c2=O)c1)N1CC(F)C1` (stereo not shown) [Example 37, 6-(2-azabicyclo[2.2.1]heptan-2-ylmethyl)-3-[6-cyclopropyl-4-[4-fluoro-2-(3-fluoroazetidine-1-carbonyl)phenyl]pyridin-2-yl]-5H-pyrrolo[3,2-d]pyrimidin-4-one], in assay [1], the half-inhibitory concentration (IC50) is below 100 nM. In assay [2], this compound registered an EC50 of 100 to 1000 nM.
The corresponding values for `COCCN(C)Cc1cc2ncn(-c3cc(-c4ccc(F)cc4C(=O)N4CC(F)(F)C4)cc(C4CC4)n3)c(=O)c2[nH]1` [Example 38, 3-[6-cyclopropyl-4-[2-(3,3-difluoroazetidine-1-carbonyl)-4-fluorophenyl]pyridin-2-yl]-6-[[2-methoxyethyl(methyl)amino]methyl]-5H-pyrrolo[3,2-d]pyrimidin-4-one] are below 100 nM and 100 to 1000 nM.
The compound `O=C(c1cc(F)ccc1-c1cc(C2CC2)nc(-n2cnc3cc(CNCCC(F)(F)F)[nH]c3c2=O)c1)N1CC(F)(F)C1` [Example 39, 3-[6-cyclopropyl-4-[2-(3,3-difluoroazetidine-1-carbonyl)-4-fluorophenyl]pyridin-2-yl]-6-[(3,3,3-trifluoropropylamino)methyl]-5H-pyrrolo[3,2-d]pyrimidin-4-one] gave an IC50 in assay [1] below 100 nM. The same compound showed an EC50 in assay [2] below 100 nM.
Take `COCCNCc1cc2ncn(-c3cc(-c4ccc(F)cc4C(=O)N4CC(F)(F)C4)cc(C4CC4)c3)c(=O)c2[nH]1` [Example 41, 6-{5-cyclopropyl-2′-[(3,3-difluoro-1-azetidinyl)carbonyl]-4′-fluoro-3-biphenylyl}-2-[(2-methoxyethylamino)methyl]-1,6-dihydro-1,4,6-triaza-7-indenone]: the half-inhibitory concentration (IC50) in assay [1] is below 100 nM. Besides, the EC50 in assay [2] lay within 100 to 1000 nM.
For `COC1CN(Cc2cc3ncn(-c4cc(-c5ccc(F)cc5C(=O)N5CC(F)(F)C5)cc(C5CC5)n4)c(=O)c3[nH]2)C1` [Example 43, 6-(6-cyclopropyl-4-{2-[(3,3-difluoro-1-azetidinyl)carbonyl]-4-fluorophenyl}-2-pyridyl)-2-[(3-methoxy-1-azetidinyl)methyl]-1,6-dihydro-1,4,6-triaza-7-indenone], in that order: below 100 nM and 100 to 1000 nM.
As to `COCCNCc1cc2ncn(-c3cc(-c4ccc(F)cc4C(=O)N4CC(F)(F)C4)cc(C4CC4)n3)c(=O)c2[nH]1` [Example 44, 6-(6-cyclopropyl-4-{2-[(3,3-difluoro-1-azetidinyl)carbonyl]-4-fluorophenyl}-2-pyridyl)-2-[(2-methoxyethylamino)methyl]-1,6-dihydro-1,4,6-triaza-7-indenone], the IC50 in assay [1] is below 100 nM. Also, the EC50 in assay [2] is below 100 nM.
For `C[C@H]1CCCN(Cc2cc3c(C#N)cn(-c4cc(-c5c(C(=O)N6CC(F)C6)cnn5C)cc(C5CC5)n4)c(=O)c3[nH]2)C1` [Example 45, 2-{[(S)-3-methyl-1-piperidyl]methyl}-6-(6-cyclopropyl-4-{4-[(3-fluoro-1-azetidinyl)carbonyl]-1-methyl-5-pyrazolyl}-2-pyridyl)-7-oxo-1,6-dihydro-1,6-diaza-4-indenecarbonitrile], the IC50 in assay [1] was below 100 nM. In assay [2], the EC50 lay within 100 to 1000 nM.
The corresponding values for `C[C@H]1CCCN(Cc2[nH]c3c(=O)n(-c4cc(-c5ccc(F)cc5C(=O)N5CC(F)C5)cc(C5CC5)n4)cc(C#N)c3c2Cl)C1` [Example 46, 2-{[(S)-3-methyl-1-piperidyl]methyl}-3-chloro-6-(6-cyclopropyl-4-{4-fluoro-2-[(3-fluoro-1-azetidinyl)carbonyl]phenyl}-2-pyridyl)-7-oxo-1,6-dihydro-1,6-diaza-4-indenecarbonitrile] are below 100 nM and below 100 nM.
The corresponding values for `CC(c1cc2ncn(-c3cc(-c4ccc(F)cc4C(=O)N4CC(F)C4)cc(C4CC4)n3)c(=O)c2[nH]1)N1CCO[C@H](C)C1` (stereo partly drawn) [Example 47, 2-{1-[(R)-2-methyl-4-morpholinyl]ethyl}-6-(6-cyclopropyl-4-{4-fluoro-2-[(3-fluoro-1-azetidinyl)carbonyl]phenyl}-2-pyridyl)-1,6-dihydro-1,4,6-triaza-7-indenone] are below 100 nM and 100 to 1000 nM.
The corresponding values for `C[C@H]1CCCN(Cc2nc3c(C(F)(F)F)cn(-c4cc(-c5ccc(F)cc5C(=O)N5CC(F)C5)cc(C5CC5)n4)c(=O)c3[nH]2)C1` [Example 48, 5-[6-cyclopropyl-4-[4-fluoro-2-(3-fluoroazetidine-1-carbonyl)phenyl]pyridin-2-yl]-2-[[(3S)-3-methylpiperidin-1-yl]methyl]-7-(trifluoromethyl)-3H-imidazo[4,5-c]pyridin-4-one] are below 100 nM and below 100 nM.
In assay [1], `Cc1cn(-c2cc(-c3ccc(F)cc3C(=O)N3CC(F)C3)cc(C3CC3)n2)c(=O)c2[nH]c([C@H]3CCCN3)nc12` [Example 49, 5-[6-cyclopropyl-4-[4-fluoro-2-(3-fluoroazetidine-1-carbonyl)phenyl]pyridin-2-yl]-7-methyl-2-[(2R)-pyrrolidin-2-yl]-3H-imidazo[4,5-c]pyridin-4-one] came in with an IC50 below 100 nM. In assay [2], this compound registered an EC50 above 5000 nM.

The values are drawn from US20240425497A1, “Cbl-b Inhibitors and Methods of Use Thereof” (ARCUS BIOSCIENCES, INC., priority 2023, published 2024).
